Several values for one entry are separate records, joined by “and”; a condition that tells them apart may be missing. Equal entries are not always repeated.
System: WM3248 melanoma cells, 486 antibodies
Experiment: Reverse phase protein arrays (RPPA)
Format: cell-based, Human
Source text: Pellets were snap frozen in liquid nitrogen and shipped to MD Anderson Cancer Center core RPPA facility for RPPA analysis (Table S5). Three biological replicates for each sample were generated.
Nomenclatures on the RPPA heatmaps: name_of_antibody.species_of_antibody.status_of_antibody. V - antibody validated; C - validation of antibody in progress; Q - antibody nonspecific; E – under evaluation; antibodies raised in M - mouse, G - goat, R - rabbit, or T - rat.

[1] = Norm_20: replicates 1-3 and Average, relative to 0

## CN(C)c1cccc(Nc2cc(-c3ccccc3)nc(C3CCNCC3)n2)c1 [ARN22089, N1,N1-dimethyl-N3-(6-phenyl-2-(piperidin-4-yl)pyrimidin-4-yl)benzene-1,3-diamine]
Norm_20, normalized to Norm_0
  PEA.15.R.V Average: 1.052
  PEA.15_pS116.R.V Average: 0.946
  PERK.R.V Average: 1.025
  PGM1.R.V Average: 0.977
  PHGDH.R.C Average: 1.014
  PHLPP.R.V Average: 1.227
  PI3K.p85.R.C Average: 0.845
  PI3K.p110.a.R.C Average: 0.888
  PI3K.p110.b.M.C Average: 0.953
  PKA.a.R.V Average: 0.999
  PKC.a.b.II_pT638_T641.R.V Average: 0.901
  PKC.b.II_pS660.R.V Average: 1.030
  PKCa.R.V Average: 1.322
  PKM2.R.C Average: 1.001
  PLK1.R.C Average: 0.902
  PMS2.R.V Average: 0.963
  PR.R.V Average: 0.888
  PRAS40.M.C Average: 1.217
  PRAS40_pT246.R.V Average: 1.170
  PRC1_pT481.R.C Average: 1.054
  Patched.R.C Average: 1.056
  Paxillin.R.C Average: 0.857
  Pdcd4.R.C Average: 0.984
  Porin.M.V Average: 1.080
  p21.R.C Average: 0.757
  p27.Kip1.R.C Average: 1.199
  p27_pT157.R.C Average: 1.392
  p27_pT198.R.V Average: 1.105
  p38.MAPK.R.V Average: 0.992
  p38.MAPK._pT180_Y182.R.V Average: 0.965
  p38.a.M.V Average: 0.909
  p44.42.MAPK.R.V Average: 1.224
  p53.R.C Average: 1.197
  p70.S6K1.R.V Average: 1.144
  p70.S6K_pT389.R.V Average: 0.981
  p90RSK_pT573.R.C Average: 0.937
[1]
  PREX1.R.V normalized RPPA signal: 1.049 and 0.907 and 1.063 and 1.006
  PTEN.R.V normalized RPPA signal: 1.227 and 1.032 and 1.101
  PTPN12.R.V normalized RPPA signal: 0.953 and 1.002 and 1.471 and 1.142
  PYGB.R.V normalized RPPA signal: 1.322 and 1.252 and 1.214
  PYGM.M.C normalized RPPA signal: 0.919 and 1.127 and 1.743 and 1.263
  Puma.R.C normalized RPPA signal: 1.011 and 1.199
  Pyk2_pY402.R.C normalized RPPA signal: 1.106 and 1.030 and 0.994
  RBM15.R.V normalized RPPA signal: 1.053 (2×) and 1.142 and 1.083
  RIP3.R.C normalized RPPA signal: 1.022 and 0.957 and 0.979 and 0.986
  RIP.R.C normalized RPPA signal: 0.835 and 1.185 and 1.165 and 1.062
  RPA32.R.V normalized RPPA signal: 1.395 and 1.278 and 1.255
  RPA32_pS4_S8.R.C normalized RPPA signal: 2.064 and 2.369 and 1.687 and 2.040
  RRM1.R.C normalized RPPA signal: 0.973 and 0.832 and 0.977 and 0.927
  RRM2.R.C normalized RPPA signal: 0.797 and 0.718 and 1.114 and 0.876
  RSK1.R.V normalized RPPA signal: 1.025 and 1.192 and 1.102
  RSK.R.C normalized RPPA signal: 0.897 and 1.161
  Rab11.R.C normalized RPPA signal: 0.945 and 1.018
  Rab25.R.V normalized RPPA signal: 1.022 and 0.964 and 0.955 and 0.980
  Rad17_pS645.R.V normalized RPPA signal: 0.978 and 0.844 and 0.971
  Rad23A.R.C normalized RPPA signal: 0.902 and 0.794 and 1.765 and 1.154
  Rad50.R.V normalized RPPA signal: 1.096 and 1.085 and 1.310 and 1.164
  Rad51.R.C normalized RPPA signal: 0.693 and 0.792 and 0.842 and 0.776
  Raptor.R.V normalized RPPA signal: 0.796 and 0.917 and 1.035 and 0.916
  Rb.M.Q normalized RPPA signal: 0.868 and 1.016 and 1.009 and 0.964
  Rb_pS807_S811.R.V normalized RPPA signal: 0.751 and 0.680 and 0.842
  Rheb.M.C normalized RPPA signal: 1.435 and 1.017 and 1.212
  Rictor.R.C normalized RPPA signal: 0.973 and 1.010 and 1.009
  Rictor_pT1135.R.V normalized RPPA signal: 0.917 and 1.033 and 0.998
  S6.M.V normalized RPPA signal: 1.331 and 0.833
  S6_pS235_S236.R.V normalized RPPA signal: 0.159 and 0.167 and 0.469 and 0.265
  S6_pS240_S244.R.V normalized RPPA signal: 0.113 and 0.501 and 0.240
  SCD.M.V normalized RPPA signal: 0.924 and 0.950 and 0.971
  SDHA.R.V normalized RPPA signal: 1.123 and 1.101 and 1.057
  SF2.R.V normalized RPPA signal: 1.010 and 0.957
  SFRP1.R.V normalized RPPA signal: 0.979 and 1.009 and 0.863 and 0.950
  SGK1.R.V normalized RPPA signal: 0.759 and 0.622 and 1.145 and 0.842
  SGK3.R.V normalized RPPA signal: 0.855 and 0.956 and 0.913 and 0.908
  SHP2.R.V normalized RPPA signal: 0.966 and 1.028 and 0.923 and 0.972
  SHP.2_pY542.R.C normalized RPPA signal: 1.218 and 1.287 and 1.191
  SIRPαR.V normalized RPPA signal: 1.172 and 0.832 and 0.694 and 0.900
  SLC1A5.R.C normalized RPPA signal: 1.248 and 1.028 and 1.189 and 1.155
  SOD1.M.V normalized RPPA signal: 0.834
  SOD2.R.V normalized RPPA signal: 1.108 and 1.226 and 0.894 and 1.076
  SOX7.R.V normalized RPPA signal: 1.078 and 1.212 and 1.083 and 1.124
  STING.R.V normalized RPPA signal: 0.848 and 1.021

Reference: PMC9127750, “Structure-based design of CDC42 effector interaction inhibitors for the treatment of cancer” (Cell reports, 2022)
